Source: US12668584B2, “Heterocyclic compounds as kinase inhibitors for therapeutic uses” (National Health Research Institutes, priority 2019, dated 2026)

Columns and labels:
[1] = target: tyrosine-protein kinase Kit (c-Kit) (Homo sapiens, UniProt P10721); assay: HotSpot kinase profiling, c-Kit; type: biochemical; conditions: HotSpot assay, 10 μM ATP; IC50 of kinase divided by that of CSF1R
Description: (§1) A study was conducted to determine kinase selectivity of compounds 27 and 67. More specifically, each compound was tested for inhibitory activity of CSF1R kinase, as compared to that of seven other kinases, i.e., Aurora A, Aurora B, tyrosine-protein kinase Kit (c-Kit), fms-like tyrosine kinase 3 (FLT3), platelet-derived growth factor receptor (PDGFR) A, PDGFR B, and discoidin domain receptor tyrosine kinase 1 (DDR1).
(§2) In vitro profiling of the kinase panel was performed at Reaction Biology Corporation (www.reactionbiology.com, Malvern, PA) using the “HotSpot” assay platform. Briefly, specific kinase/substrate pairs along with required cofactors were prepared in a reaction buffer containing 20 mM Hepes pH 7.5, 10 mM MgCl2, 1 mM EGTA, 0.02% Brij35, 0.02 mg/ml BSA, 0.1 mM NA3VO4, 2 mM DTT, and 1% DMSO. Compound 27 or 67 was added. 20 minutes later, a mixture of ATP (Sigma, St. Louis MO) and ^33P ATP (Perkin Elmer, Waltham MA) was added to the resulting reaction solution to give a final concentration of 10 μM. The reaction was carried out at room temperature for 120 min., followed by spotting the reaction solution onto P81 ion exchange filter paper (Whatman Inc., Piscataway, NJ). Unbound phosphate was removed by extensive washing filters in 0.75% phosphoric acid. […] Selectivity, expressed as an IC50 ratio, was determined by dividing the IC50 value of a kinase, e.g., Aurora A, by that of CSF1R.

[2] = system: BaF3-CSF1R-1600 cells (express ETV6-CSF1R fusion protein); assay: MTS cell viability assay, BaF3-CSF1R-1600; type: cell-based; conditions: 72 h, read-out: Cellular Proliferation Assay BaF3-CSF1R GI50
How it was run: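 Cells seeded 16 h beforehand (10000 M-NFS-60 or 8000 BaF3-CSF1R-1600 per well), then exposed 72 h to test compounds in RPMI1640 with 10% FBS at 37 °C. Viability read by MTS absorbance at 490 nm; GI50 is the concentration giving 50% viability reduction versus DMSO vehicle.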

CSF1R = CSF1R (Homo sapiens, UniProt P07333); assay: HotSpot kinase profiling, CSF1R; type: biochemical; conditions: HotSpot assay, 10 μM ATP
Sequence of CSF1R (P07333 20-972): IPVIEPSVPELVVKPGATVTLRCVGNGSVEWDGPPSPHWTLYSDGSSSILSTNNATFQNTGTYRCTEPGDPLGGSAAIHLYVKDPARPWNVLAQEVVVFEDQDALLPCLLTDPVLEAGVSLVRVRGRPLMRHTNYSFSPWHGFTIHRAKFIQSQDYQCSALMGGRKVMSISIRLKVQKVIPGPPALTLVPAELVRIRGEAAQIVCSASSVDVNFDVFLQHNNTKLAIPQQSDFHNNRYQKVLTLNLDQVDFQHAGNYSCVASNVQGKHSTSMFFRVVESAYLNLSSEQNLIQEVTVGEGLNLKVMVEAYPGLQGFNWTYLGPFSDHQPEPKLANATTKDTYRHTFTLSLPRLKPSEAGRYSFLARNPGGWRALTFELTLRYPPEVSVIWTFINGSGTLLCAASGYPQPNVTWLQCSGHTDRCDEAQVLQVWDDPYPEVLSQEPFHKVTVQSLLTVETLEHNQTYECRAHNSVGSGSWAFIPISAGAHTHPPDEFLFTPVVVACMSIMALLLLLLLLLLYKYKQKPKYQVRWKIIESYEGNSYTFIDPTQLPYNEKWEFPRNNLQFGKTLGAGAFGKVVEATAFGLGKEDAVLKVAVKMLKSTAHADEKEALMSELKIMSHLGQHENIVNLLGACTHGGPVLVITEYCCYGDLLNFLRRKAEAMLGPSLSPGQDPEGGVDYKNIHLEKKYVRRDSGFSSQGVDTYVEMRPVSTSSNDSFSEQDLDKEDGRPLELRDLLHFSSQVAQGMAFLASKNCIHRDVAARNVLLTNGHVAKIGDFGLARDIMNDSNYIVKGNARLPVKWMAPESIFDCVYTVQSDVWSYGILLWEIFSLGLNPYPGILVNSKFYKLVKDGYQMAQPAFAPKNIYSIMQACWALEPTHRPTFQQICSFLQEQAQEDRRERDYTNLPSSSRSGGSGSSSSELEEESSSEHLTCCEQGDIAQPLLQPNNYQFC
Description: as §1, §2

[3] = target: T1, fms-like tyrosine kinase 3 (FLT3) (Homo sapiens, UniProt P36888); assay: HotSpot kinase profiling, FLT3; type: biochemical; conditions: HotSpot assay, 10 μM ATP; IC50 of kinase divided by that of CSF1R
T1 sequence (P36888 27-993): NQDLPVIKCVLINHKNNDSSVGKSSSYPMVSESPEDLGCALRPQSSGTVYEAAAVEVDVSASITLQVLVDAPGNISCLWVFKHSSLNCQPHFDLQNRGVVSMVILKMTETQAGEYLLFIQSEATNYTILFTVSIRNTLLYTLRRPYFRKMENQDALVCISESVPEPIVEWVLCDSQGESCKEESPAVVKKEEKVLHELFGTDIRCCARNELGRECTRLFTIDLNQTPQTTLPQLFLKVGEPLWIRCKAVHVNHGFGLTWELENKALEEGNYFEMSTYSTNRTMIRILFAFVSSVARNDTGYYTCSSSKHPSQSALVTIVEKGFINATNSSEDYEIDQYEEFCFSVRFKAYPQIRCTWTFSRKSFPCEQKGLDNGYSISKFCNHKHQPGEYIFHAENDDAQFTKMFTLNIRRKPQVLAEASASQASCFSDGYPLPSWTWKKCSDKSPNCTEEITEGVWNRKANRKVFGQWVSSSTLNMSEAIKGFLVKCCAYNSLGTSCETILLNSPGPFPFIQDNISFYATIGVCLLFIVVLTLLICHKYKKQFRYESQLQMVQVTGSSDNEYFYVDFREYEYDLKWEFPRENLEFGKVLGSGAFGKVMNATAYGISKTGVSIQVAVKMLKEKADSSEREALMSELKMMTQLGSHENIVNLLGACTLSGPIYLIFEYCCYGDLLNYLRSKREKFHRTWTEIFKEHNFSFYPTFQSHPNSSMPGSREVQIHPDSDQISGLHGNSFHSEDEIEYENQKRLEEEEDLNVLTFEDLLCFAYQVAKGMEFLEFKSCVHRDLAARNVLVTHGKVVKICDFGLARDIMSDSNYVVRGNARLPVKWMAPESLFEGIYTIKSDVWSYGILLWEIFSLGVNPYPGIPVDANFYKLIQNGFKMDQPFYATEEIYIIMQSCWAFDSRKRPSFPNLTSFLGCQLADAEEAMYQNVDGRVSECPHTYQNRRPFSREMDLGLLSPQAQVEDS
Description: as §1, §2

Aurora A = target: T2, Aurora A (Homo sapiens, UniProt O14965); assay: HotSpot kinase profiling, Aurora A; type: biochemical; conditions: HotSpot assay, 10 μM ATP; IC50 of kinase divided by that of CSF1R
T2 sequence (O14965 1-403): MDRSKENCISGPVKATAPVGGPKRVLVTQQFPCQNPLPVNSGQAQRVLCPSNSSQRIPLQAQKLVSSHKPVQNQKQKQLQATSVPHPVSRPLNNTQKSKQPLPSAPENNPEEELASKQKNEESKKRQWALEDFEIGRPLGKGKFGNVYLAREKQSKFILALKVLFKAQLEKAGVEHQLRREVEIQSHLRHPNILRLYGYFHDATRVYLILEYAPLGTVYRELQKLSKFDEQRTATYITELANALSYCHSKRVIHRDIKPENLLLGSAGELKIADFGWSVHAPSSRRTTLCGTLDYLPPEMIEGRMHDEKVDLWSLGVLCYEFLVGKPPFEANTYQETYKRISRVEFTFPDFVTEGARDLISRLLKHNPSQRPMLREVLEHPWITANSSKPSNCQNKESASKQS
Description: as §1, §2

Sequence of tyrosine-protein kinase Kit (c-Kit) (P10721 26-976): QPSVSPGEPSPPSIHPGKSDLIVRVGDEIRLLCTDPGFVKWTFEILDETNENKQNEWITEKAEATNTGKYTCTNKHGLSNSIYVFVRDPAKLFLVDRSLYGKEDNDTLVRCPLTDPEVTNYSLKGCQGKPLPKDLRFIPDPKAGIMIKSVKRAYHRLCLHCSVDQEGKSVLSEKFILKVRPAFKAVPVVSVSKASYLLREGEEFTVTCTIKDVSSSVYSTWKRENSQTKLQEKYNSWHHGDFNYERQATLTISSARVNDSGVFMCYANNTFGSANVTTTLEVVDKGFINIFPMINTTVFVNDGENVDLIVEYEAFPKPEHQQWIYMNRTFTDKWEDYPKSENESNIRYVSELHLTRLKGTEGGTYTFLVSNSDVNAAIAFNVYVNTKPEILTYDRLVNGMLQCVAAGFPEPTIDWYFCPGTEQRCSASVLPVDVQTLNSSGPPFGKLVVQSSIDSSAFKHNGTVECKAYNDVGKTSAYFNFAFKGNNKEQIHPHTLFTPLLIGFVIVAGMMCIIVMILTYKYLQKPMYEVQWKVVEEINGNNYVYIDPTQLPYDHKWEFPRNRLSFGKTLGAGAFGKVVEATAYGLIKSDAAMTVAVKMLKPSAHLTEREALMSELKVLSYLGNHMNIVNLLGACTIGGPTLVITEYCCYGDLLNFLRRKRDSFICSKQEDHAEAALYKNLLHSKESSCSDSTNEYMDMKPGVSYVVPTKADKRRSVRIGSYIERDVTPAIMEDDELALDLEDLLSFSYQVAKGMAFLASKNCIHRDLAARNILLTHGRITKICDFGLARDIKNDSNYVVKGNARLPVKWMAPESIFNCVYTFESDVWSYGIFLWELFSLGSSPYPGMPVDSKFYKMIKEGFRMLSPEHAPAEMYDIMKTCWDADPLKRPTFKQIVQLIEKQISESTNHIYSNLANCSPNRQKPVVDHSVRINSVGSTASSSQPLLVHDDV

SMILES | IC50 ratio c-Kit / CSF1R [1] | GI50 [2] | IC50 (CSF1R) | IC50 ratio FLT3 / CSF1R [3] | IC50 ratio Aurora A / CSF1R (Aurora A)
CN(C)c1ccc2c(Oc3ccc(NC(=O)NCc4ccc(C(F)(F)F)nc4)cc3)ncnc2c1 [Compound 27, 1-(4-((7-(dimethylamino)quinazolin-4-yl)oxy)phenyl)-3-((6-(trifluoromethyl)pyridin-3-yl)methyl)urea] | ++ (++: 100 > IC50 ratio > 10) | 20 to 100 nM | 0.534 nM | +++ (+++: 1000 > IC50 ratio > 100) | ++++ (++++: IC50 ratio > 1000)
CN(C)c1ccc2c(Oc3ccc4c(ccn4C(=O)NCc4ccc(C(F)(F)F)nc4)c3)ncnc2c1 [Compound 67, 5-((7-(dimethylamino)quinazolin-4-yl)oxy)-N-((6-(trifluoromethyl)pyridin-3-yl)methyl)-1H-indole-1-carboxamide] | +++ (+++: 1000 > IC50 ratio > 100) | 20 to 100 nM | 5.69 nM | +++ (+++: 1000 > IC50 ratio > 100) | +++ (+++: 1000 > IC50 ratio > 100)
